Reference: patent US9233978B2, “6-fused heteroaryldihydropyrimidines for the treatment and prophylaxis of hepatitis B virus infection” (Hoffmann-La Roche Inc., priority 2014, dated 2016)
In brackets after ≈: the same amount, converted by molar mass.

Assays:
Lysa solubility = format: physicochemical; conditions: 0.05 M phosphate buffer (pH 6.5); for solubility thermodynamic: phosphate buffer, pH 6.5, aqueous buffer, thermodynamic from solid
In short: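 Duplicate samples dried from 10 mM DMSO stocks, taken up in 0.05 M phosphate buffer pH 6.5, stirred 1 h, shaken 2 h and left overnight. Filtrate and 1/10 dilution quantified by direct UV or HPLC-UV, in μg/mL; above 80% of the calculated maximum, reported as greater than that value.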

HepDE19 cells = assay: Cytotoxicity in HepDE19 cells (CCK-8) and selectivity index; format: cell-based; conditions: CC50 (HepDE19) value / EC50 (HepG2.2.15) value
Excerpt: (§1) HepG2.2.15 and HepDE19 are stably-transfected cell lines containing the HBV genome. Both cell lines are derived from the hepatoblastoma cell line Hep G2 (American Type Culture Collection, ATCC® HB-8065™) by the published procedures described in references: MA Selles et al. Proc. Natl. Acad. Sci. USA 1987, 84, 1005-1009 and H Guo et al. Journal of Virology 2007, 81, 12472-12484, respectively. Both cell lines were maintained in Dulbecco's modified Eagle's medium (DMEM)-F12 medium supplemented with 10% fetal bovine serum, 100 U/mL penicillin, 100 μg/mL streptomycin, and 0.5 mg/mL of G418.
(§2) HepDE19 cells were seeded into 96-well plates (5×10^3 cells per well) and treated with compounds for EC50 determination. Five days after treatment, cell viability was measured by addition of 20 μL of CCK-8 reagent. Two hours after incubation at 37° C., the absorbance at wavelengths of 450 nm and 630 nm (OD450 and OD630) was recorded by a plate reader. The concentration results in the death of 50% of the host cells (CC50) of each compound were determined.
(§3) The relative effectiveness of the compound in inhibiting viral replication compared to inducing cell death was defined as the selectivity index (CC50 value/EC50 value). Based on CC50 and EC50 data, selectivity indexes were determined.

[1] = as above; format: cell-based; conditions: human, HepDE19 cells; CCK-8 cell viability; five days after treatment
Excerpt: as §1, §2, §3

HBV = assay: Anti-HBV activity in vitro, HepG2.2.15 cells, extracellular HBV DNA by qPCR; format: cell-based; conditions: Hepatitis B virus, HepG2.2.15, 120 h, HepG2.2.15 cells; HBV replication inhibited by 50%, extracellular HBV DNA by qPCR; five days after compound treatment; read-out: EC50
In short: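 HBV-producing HepG2.2.15 cells were seeded and left overnight at 37 °C, then treated with half-log serial compound dilutions at a final 0.5% DMSO. After 5 days, viral DNA was extracted from the supernatant and extracellular HBV DNA was quantified by qPCR.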

[2] = Human microsomal metabolic stability; format: in vitro ADME; conditions: human microsomes 0.5 mg/mL, 1 μM test compound, NADPH, 37° C., pH 7.4, 0-30 minutes
Protocol: Human Microsomes (BD Gentest) were preincubated with test compound for 10 minutes at 37° C. in 100 mM phosphate buffer, pH 7.4. The reactions were initiated by adding NADPH or NADPH regenerating system to give a final incubation volume of 400 μL. For NADPH system, the final incubations contained 1 μM test compound, 0.5 mg/mL liver microsomal protein, 1 mM NADPH in 100 mM phosphate buffer, pH 7.4. For the NADPH regenerating system, the final incubations contained 1 μM test compound, 0.5 mg/mL liver microsomal protein, 3 mM glucose 6-phosphate, 1 mM NADP, 3 mM MgCl2 and 0.05 mg/mL glucose 6-phosphate dehydrogenase in 100 mM phosphate buffer, pH 7.4. After incubation times of 0, 3, 6, 9, 15 and 30 minutes at 37° C., 1 sample was obtained from each time point and 50 μL of each sample was removed and transferred to 150 μL of methanol solution which was maintained at 4° C. and contained 2 μM tolbutamide as internal standard. Following precipitation and centrifugation, the amount of compound remaining in the samples were determined by LC-MS/MS. Controls of no NADPH or no NADPH regenerating system at zero and 30 minutes were also prepared and analyzed.

SMILES | solubility thermodynamic (Lysa solubility) [µg/mL] | Selectivity index (CC50/EC50) (HepDE19 cells) | CC50 at 5 days [1] [nM] | EC50 (HBV) [nM] | Human Microsomal Clearance [2] [mL/min/kg] | Lysa (Lysa solubility) [µg/mL]
COC(=O)C1=C(CN2CCN3C(=O)N(C4CCC(C(=O)O)C4)C[C@@H]3C2)NC(c2nccs2)=N[C@H]1c1ccc(F)cc1Cl (mixture of isomers) [Example 61, (R)-6-[(S)-2-((1R,3S)-3-Carboxy-cyclopentyl)-3-oxo-hexahydro-imidazo[1,5-a]pyrazin-7-ylmethyl]-4-(2-chloro-4-fluoro-phenyl)-2-thiazol-2-yl-1,4-dihydro-pyrimidine-5-carboxylic acid methyl ester and (R)-6-[(S)-2-((1S,3R)-3-Carboxy-cyclopentyl)-3-oxo-hexahydro-imidazo[1,5-a]pyrazin-7-ylmethyl]-4-(2-chloro-4-fluoro-phenyl)-2-thiazol-2-yl-1,4-dihydro-pyrimidine-5-carboxylic acid methyl ester] | > 742 | >8333 | > 100000 | 12 | 0.4 | –
CCOC(=O)C1=C(CN2CCN3C(=O)CC[C@@H]3[C@H]2C(=O)O)NC(c2nccs2)=N[C@H]1c1cccc(F)c1Cl (racemic) [Example 99, 2-[[(4R)-4-(2-chloro-3-fluoro-phenyl)-5-ethoxycarbonyl-2-thiazol-2-yl-1,4-dihydropyrimidin-6-yl]methyl]-6-oxo-1,3,4,7,8,8a-hexahydropyrrolo[1,2-a]pyrazine-1-carboxylic acid] | > 710 | >7142 | > 100000 | 14 | 6.1 | –
COC(=O)C1=C(CN2CCN3C(=O)N(C4CC4)C[C@@H]3[C@H]2C(=O)O)NC(c2nccs2)=N[C@H]1c1ccc(F)c(F)c1C (single isomer, unassigned) [Example 83B] | – | >11111 | > 100000 | 9 | 2.9 | 780
CCOC(=O)C1=C(CN2CCN3C(=O)N(C(C)C)C[C@@H]3[C@H]2C(=O)O)NC(c2nccs2)=N[C@H]1c1cccc(F)c1Cl (single isomer, unassigned) [Example 84B] | – | >100000 | > 100000 | 1 | 3.6 | 770
CCOC(=O)C1=C(CN2CCN3C(=O)N(CC(C)C)C[C@@H]3[C@H]2C(=O)O)NC(c2nccs2)=N[C@H]1c1cccc(F)c1Cl (single isomer, unassigned) [Example 101B] | – | >100000 | > 100000 | 0.8 | 6.1 | –
CCOC(=O)C1=C(CN2CCN3C(=O)OC[C@@H]3[C@H]2C(=O)O)NC(c2nccs2)=N[C@H]1c1cccc(F)c1Cl (single isomer, unassigned) [Example 102B] | > 665 | >7142 | > 100000 | 14 | 6.2 | –
COC(=O)C1=C(CN2CCN3C(=O)N(CC4(C(=O)O)CC4)C[C@@H]3C2)NC(c2nccs2)=N[C@H]1c1ccc(F)cc1Cl [Example 35, 1-[[(8aS)-7-[[(4R)-4-(2-chloro-4-fluoro-phenyl)-5-methoxycarbonyl-2-thiazol-2-yl-1,4-dihydropyrimidin-6-yl]methyl]-3-oxo-5,6,8,8a-tetrahydro-1H-imidazo[1,5-a]pyrazin-2-yl]methyl]cyclopropanecarboxylic acid] | > 754 | >9259 | > 100000 | 11 | 0.3 | –
COC(=O)C1=C(CN2CCN3C(=O)N(CC(C)(C)C(=O)O)C[C@@H]3C2)NC(c2nccs2)=N[C@H]1c1cccc(F)c1Cl [Example 41, 3-[(8aS)-7-[[(4R)-4-(2-chloro-3-fluoro-phenyl)-5-methoxycarbonyl-2-thiazol-2-yl-1,4-dihydropyrimidin-6-yl]methyl]-3-oxo-5,6,8,8a-tetrahydro-1H-imidazo[1,5-a]pyrazin-2-yl]-2,2-dimethyl-propanoic acid] | > 804 | >7194 | > 100000 | 14 | 2.0 | –
COC(=O)C1=C(CN2CCN3C(=O)N(CC(C)(C)C(=O)O)C[C@@H]3C2)NC(c2nccs2)=N[C@H]1c1cccc(F)c1C [Example 44, 3-[(8aS)-7-[[(4S)-4-(3-fluoro-2-methyl-phenyl)-5-methoxycarbonyl-2-thiazol-2-yl-1,4-dihydropyrimidin-6-yl]methyl]-3-oxo-5,6,8,8a-tetrahydro-1H-imidazo[1,5-a]pyrazin-2-yl]-2,2-dimethyl-propanoic acid] | 207 (≈ 354 µM) | >6369 | > 100000 | 16 | 1.7 | –
COC(=O)C1=C(CN2CCN3C(=O)N(Cc4ccc(C(=O)O)cc4)CC3C2)NC(c2nccs2)=N[C@H]1c1ccc(F)cc1Cl (stereo partly drawn) [Example 65, (R)-6-[2-(4-Carboxy-benzyl)-3-oxo-hexahydro-imidazo[1,5-a]pyrazin-7-ylmethyl]-4-(2-chloro-4-fluoro-phenyl)-2-thiazol-2-yl-1,4-dihydro-pyrimidine-5-carboxylic acid methyl ester] | 194 (≈ 304 µM) | >11111 | > 100000 | 9 | 6.2 | –
CCOC(=O)C1=C(CN2CCN3C(=O)N(Cc4ccc(C(=O)O)cc4)CC3C2)NC(c2nccs2)=N[C@H]1c1cccc(F)c1Cl (stereo partly drawn) [Example 66, (R)-6-[2-(4-Carboxy-benzyl)-3-oxo-hexahydro-imidazo[1,5-a]pyrazin-7-ylmethyl]-4-(2-chloro-3-fluoro-phenyl)-2-thiazol-2-yl-1,4-dihydro-pyrimidine-5-carboxylic acid ethyl ester] | – | 15000 | 60000 | 4 | 7.1 | –
COC(=O)C1=C(CN2CCN3C(=O)N(C4CC5(CC(C(=O)O)C5)C4)C[C@@H]3C2)NC(c2nccs2)=N[C@H]1c1ccc(F)cc1Cl (stereo partly drawn) [Example 79, 2-[(8aS)-7-[[(4R)-4-(2-chloro-4-fluoro-phenyl)-5-methoxycarbonyl-2-thiazol-2-yl-1,4-dihydropyrimidin-6-yl]methyl]-3-oxo-5,6,8,8a-tetrahydro-1H-imidazo[1,5-a]pyrazin-2-yl]spiro[3.3]heptane-6-carboxylic acid] | 180 (≈ 280 µM) | 6500 | 52000 | 8 | 3.6 | –
CCOC(=O)C1=C(CN2CCN3C(=O)N(CC4CC(C(=O)O)C4)C[C@@H]3C2)NC(c2nccs2)=N[C@H]1c1cccc(F)c1Cl (stereo partly drawn) [Example 81, 3-[[(8aS)-7-[[(4R)-4-(2-chloro-3-fluoro-phenyl)-5-ethoxycarbonyl-2-thiazol-2-yl-1,4-dihydropyrimidin-6-yl]methyl]-3-oxo-5,6,8,8a-tetrahydro-1H-imidazo[1,5-a]pyrazin-2-yl]methyl]cyclobutanecarboxylic acid] | 279 (≈ 442 µM) | 8500 | 85000 | 10 | 0.1 | –
